From patent US9464052B2, “Potassium ion channel modulators and uses thereof” (Ramot at Tel-Aviv University Ltd., priority 2008, dated 2016) come the findings set out here.

The assay has as its target KCNQ2/KCNQ3 potassium channel (Homo sapiens, UniProt O43525+O43526). Briefly: KCNQ2/KCNQ3 potassium channel current, automated parallel patch clamp (PatchXpress 7000A). Type of assay: cell-based. The following applies: channel expressed in mammalian cells, ambient temperature. As to the method: The objective of this study was to examine the in vitro effects of the Example compounds on the KCNQ2/KCNQ3 potassium channel current expressed in mammalian cells using the PatchXpress 7000A (Molecular Devices), an automatic parallel patch clamp system. The test compounds were evaluated at 30 μM with this concentration tested in 3 cells (n=3). The duration of exposure to the test compound concentration was 5 minutes. […] The results for a positive control, flupirtine (Table 2) confirm the sensitivity of the test system to detect KCNQ2/KCNQ3 current enhancement.
All experiments were performed at ambient temperature. Each cell acted as its own control.
A 30 μM concentration of test compound was applied via disposable polyethylene micropipette tips to naïve cells (n=2, where n=the number cells). Each solution exchange, performed in quadruplicate, consisted of aspiration and replacement of 45 of the total 50 μL volume of the extracellular well of the Sealchip16.
Vehicle was applied to naïve cells (n 2, where n=the number cells), for a 5 minute exposure interval. Each solution exchange, performed in quadruplicate, consisted of aspiration and replacement of 45 μL of the total 50 μL volume of the extracellular well of the Sealchip16. After vehicle application, the positive control was applied in the same manner, to verify sensitivity of the assay.
In preparation for a recording session, intracellular solution was loaded into the intracellular compartments of the Sealchip16 planar electrode. Cell suspension was pipetted into the extracellular compartments of the Sealchip16 planar electrode. After establishment of a whole-cell configuration, membrane currents were recorded using dual-channel patch clamp amplifiers in the PatchXpress®system. Before digitization, the current records were low-pass filtered at one-fifth of the sampling frequency.
Data acquisition and analyses were performed using the suite of pCLAMP programs (Axon Instruments, Union City, Calif.). Steady state was defined by the limiting constant rate of change with time (linear time dependence). The steady state before and after test article application was used to calculate the percentage of current inhibited at each concentration. Results obtained from different cell were averaged and presented as Mean±S.D.—see Tables 1 and 2.

[1] abbreviates: 30 μM test compound, 5 minutes exposure.

Structures are written as SMILES.

Turning to `O=C(Cc1cccc(Nc2c(Cl)cc(Cl)cc2Cl)c1)NCCO` [Example 1, N-(2-Hydroxy-ethyl)-2-[3-(2,4,6-trichloro-phenylamino)-phenyl]-acetamide], under setting [1], the “Mean % Enhancement of KCNQ2/KCNQ3” value amounted to 168.2%.
For `O=C(Cc1ccc(Nc2c(Cl)cc(C(F)(F)F)cc2Cl)cc1)NCCO` [Example 3, 2-[4-(2,6-Dichloro-4-trifluoromethyl-phenylamino)-phenyl]-N-(2-hydroxy-ethyl)-acetamide], the “Mean % Enhancement of KCNQ2/KCNQ3” value under setting [1] turned out to be 115.8%.
Still for that read-out and setting: the figure for `O=C(O)CNC(=O)Cc1ccc(Nc2cc(Cl)cc(Cl)c2)cc1` [Example 4, {2-[4-(3,5-Dichlorophenylamino)-phenyl]-acetylamino}-acetic acid] is 181.9%; for `O=C(O)CNC(=O)Cc1cc(Nc2cc(Cl)cc(Cl)c2)ccc1F` [Example 2, {2-[5-(3,5-Dichloro-phenylamino)-2-fluoro-phenyl]-acetylamino}-acetic acid] it is 162.5%.
As for `CCOC(=O)Nc1ccc(NCc2ccc(F)cc2)nc1N` [Flupirtine, reference compound], the “Mean % Enhancement of KCNQ2/KCNQ3” value (10 μM positive control, applied after vehicle) amounted to 201.0%.
